Source: US20250129385A1, “GENE-EDITING METHODS FOR EMBRYONIC STEM CELLS” (ABS Global, Inc., priority 2022, published 2025)

How the values were obtained:
Type in all cases: cell-based
ROSA safe harbor locus = assay: CRISPR-Cas9 RNP gene editing of bovine ESC, indels by Sanger sequencing/TIDE, ROSA locus; conditions: gbESC_H2682 cells; RNP 20 pmol SpCas9 + 60 pmol sgRNA, program CM138; DNA after four days; TIDE
Method: (§1) Test edits were performed in the ROSA and CD18 loci. CRISPR guides targeting the CD18 (ITGB2) gene at chr1:144,776,517, or the ROSA safe harbor locus region chr22:17,210,883-17,210,982, (genome assembly ARS-UCD1.2/bosTau9) were designed and synthesized as sgRNA molecules (IDT, Coralville IA) as shown in Table 2.
(§2) Ribonucleoprotein complexes formed from 20 pmol SpCas9 (IDT, Coralville IA) and 60 pmol sgRNA were electroporated into gbESC_H2682 cells using P3 nucleofection solution and the Amaxa 4D program CM138. After four days DNA from the cells was harvested using QUICKEXTRACT™ reagent (Lucigen, Middleton WI), and PCR was performed using the primers in Table 3.

seventh exon of CD163 = assay: CRISPR-CAS9 editing of porcine ESC, single-cell clones screened by PCR genotyping; conditions: two guides together, C9 line; RNP 20 pmol SpCas9 + 60 pmol sgRNA, pulse DS137; colonies screened at day 21
Excerpt: As proof of concept, the present inventors sought to create the CD163 edit disclosed in U.S. Pat. No. 11,535,850. Two guides, ctggcttact cctatcatga agg (SEQ ID NO: 103) and tcccatgcca tgaagagggt agg (SEQ ID NO: 104) were used to excise the seventh exon of CD163. These guides were electroporated into the C9 line by mixing cells in P3 nucleofection solution with ribonucleoprotein (20 pmol SpCas9 complexed with 60 pmol of the guide sgRNA) and using the pulse condition DS137 in a 4D-Nucleofector system (Lonza, Walkersville MD). Between day 7 and 12 post-electroporation, single cells were deposited one per well into a 96 well plate (coated with laminin 521 and containing TI media with Y27632) using a Hana Single Cell Dispenser instrument (Namocell, San Jose CA). Cells were allowed to grow until day 21, and then colonies were screened by PCR genotyping (see 11,535,850).

CD18 (ITGB2) gene = assay: CRISPR-Cas9 RNP gene editing of bovine ESC, indels by Sanger sequencing/TIDE, CD18 locus; conditions: gbESC_H2682 cells; RNP 20 pmol SpCas9 + 60 pmol sgRNA, program CM138; DNA after four days; TIDE
Method: as §1, §2

[1] = system: Porcine stem cell line C2; assay: Single passage cell growth in media #2 with additives (CELLTITER-GLO 2.0); conditions: simple defined media #2 plus additive, day five; for Cell Growth (% of simple media): line C2 passaged 1:80, laminin 521, changed daily
Method: A revised simple defined media #2 (Table 6, with lower ascorbic acid and FGF2) was used to determine any immediate benefit of certain additives over the timeframe of one passage.
Porcine stem cell line C2 (see Example 2) growing in the standard TI media conditions was passaged at a 1:80 ratio into a laminin 521 coated 24 well plate containing simple defined media #2 alone or with the addition of 1% bovine serum albumin, 1% Albumax, 1 mg/mL polyvinyl acetate, 1:500 chemically defined lipids (Gibco), 1:500 lipid mixture solution (Peprotech), 1:1000 Trace Elements B or C (Corning), sodium bicarbonate, and double the amount of ITS (insulin/transferrin/selenium). Cells were incubated at 38.5° C./5% 02 and media and additives were changed daily. On day five cell growth was measured using the CELLTITER-GLO® 2.0 kit (Promega, Madison WI).

Molecule: 748: sgRNA, guide sequence TGTCGAGTCTCGATTATGGG, targeting bovine ROSA safe harbor locus (listed as DNA, chemistry not given here; listed as Bos taurus) [compound 748]
- Efficiency (%) (editing frequency) (ROSA safe harbor locus): 74.3%

Molecule: 750: sgRNA, guide sequence AGGCGATGACGAGATCGCGG, targeting bovine ROSA safe harbor locus (listed as DNA, chemistry not given here; listed as Bos taurus) [compound 750]
- Efficiency (%) (editing frequency) (ROSA safe harbor locus): 58.2%

Molecule: SEQ ID NO: 103: guide ctggcttact cctatcatga agg used to excise the seventh exon of CD163 (guide CTGGCTTACTCCTATCATGAAGG; listed as DNA, chemistry not given here; listed as Sus scrofa)
- clones homozygous for the CD163 edit (seventh exon of CD163): Two clones that were homozygous for the edit were found

Molecule: 749: sgRNA, guide sequence ATAATCGAGACTCGACATGG, targeting bovine ROSA safe harbor locus (listed as DNA, chemistry not given here; listed as Bos taurus) [compound 749]
- Efficiency (%) (editing frequency) (ROSA safe harbor locus): 66.5%

Molecule: 754: sgRNA, guide sequence CCCCGTGGGACTCACCGGAC, targeting bovine CD18 (ITGB2) gene (listed as DNA, chemistry not given here; listed as Bos taurus) [compound 754]
- Efficiency (%) (editing frequency) (CD18 (ITGB2) gene): 34.9%

Molecule: O=C([O-])O.[Na+] [Sodium bicarbonate]
- Cell Growth (% of simple media) [1]: 75%

Molecule: SEQ ID NO: 104: guide tcccatgcca tgaagagggt agg used to excise the seventh exon of CD163 (guide TCCCATGCCATGAAGAGGGTAGG; listed as DNA, chemistry not given here; listed as Sus scrofa)
- clones homozygous for the CD163 edit (seventh exon of CD163): Two clones that were homozygous for the edit were found

Molecule: + 1% BSA (Gibco A10008-01): 1% bovine serum albumin added to simple defined media #2
- effect on cell growth in words ([1]; line C2): beneficial to cell growth
- Cell Growth (% of simple media) [1]: 187%
